US7449459B2, “Inhibitors of soluble adenylate cyclase” (Bayer Schering Pharma AG, priority 2006, dated 2008)

Biological target: soluble, sperm-specific adenylate cyclase (sAC) (Homo sapiens, UniProt Q96PN6)
Experiment: sAC-Assay (HTRF cAMP detection)
Type: biochemical
Conditions: inhibition of the soluble adenylate cyclase
Description: In a suitable buffer system, the soluble, sperm-specific adenylate cyclase catalyzes the reaction of adenosine triphosphate (ATP) to cyclic adenosine monophosphate (cAMP) and pyrophosphate. Free cAMP that is generated in this way is then used in a competitive detection process, in which the binding of a europium kryptate (Eu[K])-labeled anti-cAMP antibody (anti cAMP-Eu[K]-AK) to a cAMP-molecule-labeled, modified allophycocyanine-1 molecule (cAMP-XL665) is prevented. In the absence of exogenic cAMP, after excitation at 335 nm, it results in a fluorescence resonance energy transfer (FRET) between the anti cAMP-Eu[K]-AK (FRET-donor) and the cAMP-XL665 molecule (FRET-acceptor). This process is quantified at different times (time-resolved) based on the emission of FRET-acceptor XL665 (665 nm and 620 nm). A signal drop (measured as a wave ratio; calculation formula: [(E665 nm/E620 nm)×10000]) can be attributed to the presence of cAMP and thus to the activity of sAC.
First, 1.5 μl of the test substance (in 30% DMSO), only 30% DMSO in the solvent controls, is introduced per recess in a 384-hole test plate (polystyrene; 384, NV). […]
After an additional incubation of 90 minutes at room temperature, the HTRF result is measured either on the Packard Discovery or with the RubiStar HTRF measuring device (Delay: 50 μs; Integration time: 400 μs).

Chain of soluble, sperm-specific adenylate cyclase (sAC) (Q96PN6 whole entry): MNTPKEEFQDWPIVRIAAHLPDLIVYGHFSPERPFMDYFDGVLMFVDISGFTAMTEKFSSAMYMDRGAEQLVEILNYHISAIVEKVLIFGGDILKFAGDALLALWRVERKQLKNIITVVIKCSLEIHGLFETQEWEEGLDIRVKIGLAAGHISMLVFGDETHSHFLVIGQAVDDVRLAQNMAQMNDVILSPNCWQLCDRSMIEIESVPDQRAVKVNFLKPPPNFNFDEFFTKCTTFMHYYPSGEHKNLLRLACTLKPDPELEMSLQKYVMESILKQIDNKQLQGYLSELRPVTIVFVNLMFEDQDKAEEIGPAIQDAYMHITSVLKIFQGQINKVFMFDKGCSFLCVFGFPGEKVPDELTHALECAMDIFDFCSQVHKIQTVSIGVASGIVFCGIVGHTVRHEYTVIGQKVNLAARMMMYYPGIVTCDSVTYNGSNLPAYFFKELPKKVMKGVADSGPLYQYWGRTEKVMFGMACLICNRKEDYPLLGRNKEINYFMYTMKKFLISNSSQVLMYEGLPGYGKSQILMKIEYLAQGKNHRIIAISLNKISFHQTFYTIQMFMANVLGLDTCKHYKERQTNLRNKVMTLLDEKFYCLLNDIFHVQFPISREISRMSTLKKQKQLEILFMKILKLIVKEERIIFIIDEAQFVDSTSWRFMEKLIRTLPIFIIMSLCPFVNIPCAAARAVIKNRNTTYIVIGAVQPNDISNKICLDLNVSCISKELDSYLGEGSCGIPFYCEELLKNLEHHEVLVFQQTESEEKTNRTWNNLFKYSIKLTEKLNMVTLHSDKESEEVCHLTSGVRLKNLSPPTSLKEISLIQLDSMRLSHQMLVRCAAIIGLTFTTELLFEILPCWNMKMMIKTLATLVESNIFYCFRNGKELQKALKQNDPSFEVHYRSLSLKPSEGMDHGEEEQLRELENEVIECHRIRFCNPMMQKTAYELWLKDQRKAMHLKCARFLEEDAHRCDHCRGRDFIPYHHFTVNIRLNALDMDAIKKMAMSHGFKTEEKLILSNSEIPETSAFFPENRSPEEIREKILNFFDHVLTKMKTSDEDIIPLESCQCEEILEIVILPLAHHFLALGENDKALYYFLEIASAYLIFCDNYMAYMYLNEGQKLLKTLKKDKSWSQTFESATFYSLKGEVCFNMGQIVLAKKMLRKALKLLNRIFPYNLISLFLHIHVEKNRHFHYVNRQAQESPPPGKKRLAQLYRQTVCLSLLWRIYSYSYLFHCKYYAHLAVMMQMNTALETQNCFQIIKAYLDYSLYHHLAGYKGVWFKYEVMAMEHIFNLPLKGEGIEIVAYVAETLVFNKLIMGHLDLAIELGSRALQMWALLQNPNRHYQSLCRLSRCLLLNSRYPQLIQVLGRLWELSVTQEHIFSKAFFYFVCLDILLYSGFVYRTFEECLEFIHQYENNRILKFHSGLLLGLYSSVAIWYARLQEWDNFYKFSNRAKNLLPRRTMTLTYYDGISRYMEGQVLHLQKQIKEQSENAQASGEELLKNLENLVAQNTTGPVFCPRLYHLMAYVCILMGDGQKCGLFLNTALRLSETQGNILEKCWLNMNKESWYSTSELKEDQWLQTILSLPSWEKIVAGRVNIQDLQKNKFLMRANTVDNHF

IC50 | SMILES
4.4 µM | CC(O)CNC(=O)/C=C/c1[nH]c2ccc(NS(=O)(=O)c3ccc(C(C)(C)C)cc3)cc2c1-c1ccccc1 (racemic) [(±)-(E)-3-[5-(4-tert-Butyl-phenylsulfonylamino)-3-phenyl-1H-indol-2-yl]-N-(2-hydroxy-propyl)-acrylic acid amide]
3.5 µM | CC(C)(C)c1ccc(S(=O)(=O)Nc2ccc3[nH]c(/C=C/C(=O)NCCN4CCOCC4)c(-c4ccccc4)c3c2)cc1
